Usually melting point stands for the temperature, or range, at which the solid turns liquid.

These results are taken from a melting point compilation (Tetko et al.; mined from patent text by program, amines drawn as free bases though some values may be those of a salt).

A value given as a limit tells only on which side of the number the result lay.

In turn, `c1cn(-c2ccc(N3CCNCC3)cc2)cn1` registered a melting point of 177 to 180 °C.
The molecule `Cc1cc(C#N)c(Nc2ccccc2[N+](=O)[O-])s1` showed a melting point of 99 to 102 °C.
In turn, `CCOC(=O)C=CC(=O)c1ccc(Cl)cc1` came in with a melting point of 62.5 to 63.5 °C.
The molecule `CCOC(=O)c1ncn2c1CN(C)C(=O)c1sccc1-2` registered a melting point of 160 to 162 °C.
With `O=S1(=O)NCCOc2ccc(Br)cc21`, the melting point was determined as 129 °C.
The figure for `CN1CCCCC1CCc1ccccc1NC(=O)C#Cc1ccccc1` (stereo unspecified) is 104 to 106 °C; for `CCS(=O)(=O)c1ccc(Oc2ccc3c(c2)OCO3)nc1` it is 97 to 99 °C.
For `CN(C)CCCN1N=C2C(=Cc3ccccc3)CS(=O)CC2C1c1ccccc1` (stereo unspecified) the value was 155 to 160 °C; for `Fc1ccc(Cn2c(NC3CCN(CCNc4ncccn4)CC3)nc3cncnc32)cc1`, 164 °C; for `O=C1O[C@@H](CO)CN1c1ccc(-n2ccnn2)c(F)c1`, 179 to 180 °C.
`CCOC(=O)C1=C(C)NC(N=C(C)N(C)C)=C(C(=O)OCC)C1c1ccccc1Cl` (stereo unspecified) displayed a melting point of 181 °C.
Turning to `CN(Cc1cccc2c1CN(C1CCC(=O)NC1=O)C2=O)C(=O)Nc1cc(F)cc(F)c1` (stereo unspecified), the melting point fell in the range of 228 to 230 °C.
`Cc1c2ccccc2c(-c2ccc(OS(C)(=O)=O)cc2)c2c1sc1ccccc12`: the melting point lay in the range of 172 to 173 °C.
Molecule `CCOC(=O)c1nc(C)oc1C(=O)Cl` gave a melting point of 103 to 105 °C.
For the molecule `CCc1c(-c2ccc(OCc3ccccc3)cc2)c2cc(C(=O)O)c3c(NC(C)=O)ccc1n23`, the melting point lay within 244 to 246 °C.
The molecule `Cc1cccc(NC(=O)NCC(=O)N(CC(=O)N2CCc3ccccc3C2)c2ccccc2)c1` gave a melting point of 135 °C.
For `O=c1oc2ccccc2c2c1CNCC2` the value was 125 to 128 °C.
`CC(C)(C)OC(=O)N1CCN(c2ccc3nc(-c4cccs4)cn3n2)CC1` came in with a melting point of 165 to 167 °C.
`CC(C)(C)NCCCOc1ccccc1Cc1cccc2[nH]ccc12` returned a melting point of 96 °C.
`COc1ccc(OCCCCCCc2c(C)n[nH]c2C)c(Cl)c1`: the melting point is 150 to 151 °C.
In turn, `O=C(c1ccccc1)c1cc(Cl)ccc1CCCN1C(=O)c2ccccc2C1=O` registered a melting point of 94 to 97 °C.
For `CNC(=S)NCCS(=O)Cc1cncn1C` (stereo unspecified) the value was 139 to 140 °C; for `Fc1ccc(N2CCN(Cc3cn4cc(Cl)ccc4n3)CC2)cc1`, 130 to 131 °C; for `O=C(Nc1nc(Cl)cc(Cl)n1)NS(=O)(=O)Nc1ccccc1C(=O)C1CC1`, 114 to 116 °C.
`CS(=O)(=O)c1ccc2ncn(/C=C/C(=O)O)c(=O)c2c1`: the melting point lay in the range of 284 to 290 °C.
For the molecule `Oc1ccc(-c2ncc3ncc(Nc4ncccn4)cc3n2)cc1`, the melting point is over 268 °C.
On to `CC(C)(C)OC(=O)NCc1cc(C(=O)O)ccn1`, for which the melting point came to 207 °C.
With `CCCCc1csc2ccc3[nH]c4c(c3c12)CN(C)CC4`, the melting point fell in the range of 192 to 193 °C.
For the molecule `CC(=O)c1nc2cc(Cl)c(OCC(F)(F)F)cc2cc1O`, the melting point is 104 to 105 °C.
The molecule `CC1OCC(C)n2c1nc1c(N)nc3ccccc3c12` (stereo unspecified) came in with a melting point of 218 to 223 °C.
In the case of `CC12CCC=CC1=CCC1C2CCC2(C)C(OS(=O)(=O)C(F)(F)F)=CCC12` (stereo unspecified), the melting point is 75 to 76 °C.
`Cc1cc(C)c2cccc(OCc3c(Cl)ccc(S(=O)(=O)N4CCC[C@H]4C(=O)N4CCN(C(=O)c5ccc(C(N)=NO)cc5)CC4)c3Cl)c2n1` had a melting point of 161 °C.
Consider `CC1CC2OC2C=CC=CC(=O)Cc2c(Cl)c(O)cc(O)c2C(=O)O1` (stereo unspecified), for which the melting point was determined as 195 °C.
Molecule `COC(C)C#Cc1ncn2c1CN(C)C(=O)c1c(Cl)cccc1-2` (stereo unspecified) displayed a melting point of 139 to 141 °C.
`O=C1c2cc(OCCCl)ccc2-c2ccc(OCCCl)cc21` came in with a melting point of 135 to 139 °C.
Turning to `CCCCNC(=O)C1Cc2c([nH]c3ccccc23)C(c2ccc3c(c2)OCO3)N1C(=O)C=Cc1ccccc1` (stereo unspecified), the melting point was in the range of 114 to 117 °C.
In turn, `O=S(=O)(Nc1ccc(C2=NC3(O)c4ccc(Cl)cc4CC3S2)cc1)c1ccc(Cl)cc1` (stereo unspecified) registered a melting point of 116 °C.
`Clc1ccc(C2=CCCC2)cn1`: the melting point is 59 to 60 °C.
For `CCCCCS(=O)(=O)NC(=O)/C=C/c1c(C)cc(C)n1Cc1ccc(Cl)cc1Cl` the value was 170 to 171 °C; for `CCOP(=O)(O)C(=Nc1ccc(-c2c[nH]cn2)cc1)NCCSC`, 240 to 241 °C.
The molecule `COc1ccc(C(=O)COc2ccc(C(=O)OCc3ccccc3)c(O)c2)cc1C(C)(C)C` came in with a melting point of 98 to 99 °C.
For `CC(C)(C)NC(=O)c1nn(-c2ccc(Cl)cc2F)c2c1C1CCC2C1` (stereo unspecified) the value was 148 to 152 °C; for `O=C1c2ccccc2C(=O)N1CCCCCCCCOc1cccc2ccccc12`, 63 to 64 °C; for `O=C(O)c1cc(C(F)(F)F)cc([N+](=O)[O-])c1O`, 166 to 168 °C.
In turn, `C=CCNC(=O)C1CCc2cc(C3CCCCC3)ccc2O1` (stereo unspecified) gave a melting point of 93 to 94 °C.
For `CC(C)(C)c1cc(=O)o[nH]1` the value was 110 to 115 °C; for `C=CCOc1ccc(C)c2c1C(C)(C)C(=O)N2`, 153 to 155 °C.
For `OC1(c2ccc(-c3cccnc3)cc2)CN2CCC1CC2` (stereo unspecified) the value was 172 to 173 °C.
The figure for `CCN(CC)CCN1C(=O)c2cc(Cl)c(S(N)(=O)=O)cc2C1=O` is 152 to 154 °C; for `Cc1nc(N2CCN(C)CC2)nc(N)c1-c1cc(Cl)cc(Cl)c1` it is 164 to 166 °C.
The molecule `O=C(OCc1ccccc1)[C@@H](CC1=CCCC1)OS(=O)(=O)c1ccccc1[N+](=O)[O-]` showed a melting point of 122 to 124 °C.
As for `CC(=O)Nc1ccc(C(O)C2CCN(CCc3ccccc3)CC2)cc1` (stereo unspecified), the melting point was 173 to 174 °C.
For `O=C1OC(c2ccccc2)=NC1=Cc1ccc(Oc2ccccc2)cc1`, the melting point lay in the range of 156 to 158 °C.
For the molecule `O=C(Cl)c1ccc(-c2ccc(C(=O)Cl)cn2)nc1`, the melting point lay in the range of 216 to 217 °C.
In turn, `CC1CN(C)c2c(Cl)ccc3c(=O)c(C(=O)O)cn1c23` (stereo unspecified) registered a melting point of 243 to 245 °C.
For `O=Cc1c(-c2ccccc2Cl)ccc2c1OCO2`, the melting point lay within 84 to 86 °C.
The figure for `N#Cc1cn(CO)cc1-c1ccccc1Cl` is 94 to 97 °C; for `COc1ccc(Br)c(OC)c1C#N` it is 113 to 115 °C.
The figure for `COC(=O)CCCCCCCCCC1=C(C)C(=O)C(OC)=C(OC)C1=O` is 37 to 38 °C; for `O=C(O)c1cn(C2CCCC2)c2c(F)c(F)c(F)cc2c1=O` it is 206 to 207 °C; for `COC(=C1C2CC3CC1CC(O)(C3)C2)c1cccc(O)c1` it is 171 to 172 °C.
Consider `COC(=O)c1ccc(-n2ccc(C)n2)cc1OC`, for which the melting point was 167 to 169 °C.
The molecule `O=NCNC1=Nc2ccc(Cl)cc2N(c2ccccc2)C(=O)C1` displayed a melting point of 121 to 124 °C.
Molecule `CC(=O)OCc1nccc(OCCCOc2ccc3ncc([N+](=O)[O-])n3n2)c1C` showed a melting point of 148 to 151 °C.
Molecule `CC(=O)NCCn1ccc2c1-c1cc(Cl)ccc1CC2` registered a melting point of 144 to 146 °C.
The figure for `CCCC(Cc1ccc(Cl)cc1)C1(S(=O)(=O)c2ccc(OC)cc2)SC(=O)NC1=O` (stereo unspecified) is 172 to 174 °C.
